Source: patent US20110233146A1, “S[…] CONTROL COMPOSITION, SYSTEMS, AND RELATED METHODS THEREFOR” (Siemens Water Technologies Corp., priority 2009, published 2011)

Columns and labels:
[1] = system: atmospheric hydrogen sulfide; test: Example 2: slug dose of anthraquinone alone, all other chemical feed off at LS482, atmospheric hydrogen sulfide by OdaLog monitor/loggers
Protocol: In order to gather the required information, the two OdaLog® hydrogen sulfide monitor/loggers were deployed in the manhole just prior to lift station LS481 prior to 10:00 a.m. on day one. At 10:00 a.m. on day one all chemical feed was turned off at lift station LS482. At 10:00 a.m. on day two a ten gallon slug of anthraquinone (AQUIT) was added to the flow through the manhole at lift station LS482. At 10:00 a.m. on day three, regular chemical feed was resumed at lift station LS482. The OdaLog® monitor/loggers were retrieved on day six and downloaded to retrieve the atmospheric hydrogen sulfide concentrations before, during, and following the trial.
Data was collected over a period of several days to include a full day prior to the test and a full day after the test as summarized in the graph of FIG. 7.
The average atmospheric hydrogen sulfide concentration for the 24 hour period with no chemical additive was about 1,032 ppmv. During the following 24 hour period during which the effect of the slug dose of anthraquinone, the atmospheric hydrogen sulfide concentration averaged about 999 ppmv; the hydrogen sulfide concentration was thus reduced by about 3.2 percent.

[2] = system: atmospheric hydrogen sulfide; test: Sewerage system field trial (Example 1): atmospheric hydrogen sulfide logged at lift stations LS481 and LS480
Description: The collection system consisted of four serial master lift stations LS 479, LS482, LS 481, and LS 480 feeding wastewater to a central treatment plant WWTP as depicted in FIG. 2.
Calcium hydroxide (with or without anthraquinone) feed rate was dependent mainly on the wastewater flow rate.
Data collected included atmospheric hydrogen sulfide collected every five minutes with monitor/loggers within the monitoring manhole at lift station LS481 and inside the lift station LS480, and dissolved sulfide grab samples at each as well as treatment plant WWTP. Nitrate residual and pH data were also collected. […] The chemical feed line was disposed to feed into the manhole about 50 feet upstream of lift station LS482.
Over the next few weeks the controller pH set point was adjusted until the desired atmospheric pH was attained downstream at lift station LS481.
Two batches of a formulation of calcium hydroxide supplemented with anthraquinone were fed to determine the effectiveness of the combination for controlling odor.
The primary monitoring point for atmospheric hydrogen sulfide was at lift station LS481. The primary monitoring point for dissolved sulfide was the plant influent. During the period from June 23 to July 14 background data was gathered (FIG. 4) to reflect the system operating on nitrate salt feed at all four lift stations.
The data was tabulated for every day on which no calcium hydroxide was fed and that nitrate salt was fed at all four lift stations.

[3] = 10/14 to 10/17, after 10 gal anthraquinone slug on 10/13 at LS482, with calcium hydroxide slurry 258 GPD, nitrate salt solution 197 GPD

## O=C1c2ccccc2C(=O)c2ccccc21 [Anthraquinone, anthraquinone]
[1]; 24 hour period under the effect of a ten gallon slug of anthraquinone alone, preceding 24 hours with no chemical additive about 1,032 ppmv
  average atmospheric hydrogen sulfide concentration: about 999 ppmv
[1]; ten gallon slug of anthraquinone alone versus preceding 24 hours with no chemical additive
  hydrogen sulfide concentration reduced by: about 3.2%
[2]; [3]
  LS480 Avg Atm H2S: 305 ppmv
  LS481 Avg Atm H2S: 100 ppmv
[2]; anthraquinone added to the alkaline material used for pH adjustment, versus alkaline material without it
  decrease in atmospheric hydrogen sulfide concentration at the downstream monitoring point: 21%
[2]; anthraquinone added with calcium hydroxide to the sewer upstream of the sampling point (see Table 8)
  atmospheric hydrogen sulfide downstream dropped: 37.5%
[2]; one time slug of anthraquinone along with the calcium hydroxide feed, over the next four days
  reduction in the hydrogen sulfide concentration at the downstream monitoring point lift station LS481: about 38%
